# pIC50: −log10 of the molar value. “And” between values parts separate entries of the source, which are not always exact repeats. Identical values can stand only once.
# Columns and labels:
# [1] = target: T1, hTRPV3 (Homo sapiens (Human), UniProt Q8NET8); assay: hTRPV3 HAMA IC50 assay (Hamamatsu FDSS6000 calcium flux, TRex-293 cells)
# Method: IC50s were calculated using CBIS from ChemInnovation (San Diego).
# [2] = target: T1, hTRPV3; assay: Whole-cell patch clamp, hTRPV3 Phase 1 / Phase 2 currents; format: cell-based; settings: for pIC50: inward, whole-cell patch clamp
# Procedure, shortened: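 Currents are activated by 20 μM 2-APB or by perfusate at 28 °C or warmer, in Ringer's solution, and quantified at ±80 mV.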
# [3] = Metabolic Stability assay, rat liver microsomes; format: in vitro ADME; settings: for half-life at 1 μM: read-out: LM T1/2 (min) (rat)
# Procedure, shortened: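 Reactions in human or rat liver microsomes at 37 °C were started with an NADPH-regenerating system, using 1 μM compound initially. Samples were taken at 0, 7, 15, 30 and 60 min, quenched in ice-cold acetonitrile/MeOH/H2O, and quantified by HPLC/MS/MS.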
# [4] = Aqueous solubility assay in Normal Ringer Solution; settings: Normal Ringer Solution; for solubility at 40 min: saline or isotonic, kinetic from dmso stock
# Method: Following vortex and incubation for a sufficient time (e.g. 40 minutes at room temperature), solutions were filtered, quenched with acetonitrile, and analyzed by Liquid Chromotography. Solubility Limits were determined by comparison to a standard curve.
# [5] = hTRPV3 HAMA IC50 (nM) (5 min), 5 min
# [6] = Phase 1 current, read-out: hTRPV3 Patch P1 Inwd
# [7] = Phase 1 current, read-out: hTRPV3 (nM) (Phase 1)
# [8] = Phase 2 current, read-out: hTRPV3 Patch P2 Inwd
# [9] = Phase 2 current, read-out: hTRPV3 (nM) (Phase 2)
# [10] = read-out: hTRPV3 (nM) (Phase 1)
# [11] = hTRPV3 HAMA IC50 (nM) (30 min), 30 min
# T1 sequence (Q8NET8 whole entry): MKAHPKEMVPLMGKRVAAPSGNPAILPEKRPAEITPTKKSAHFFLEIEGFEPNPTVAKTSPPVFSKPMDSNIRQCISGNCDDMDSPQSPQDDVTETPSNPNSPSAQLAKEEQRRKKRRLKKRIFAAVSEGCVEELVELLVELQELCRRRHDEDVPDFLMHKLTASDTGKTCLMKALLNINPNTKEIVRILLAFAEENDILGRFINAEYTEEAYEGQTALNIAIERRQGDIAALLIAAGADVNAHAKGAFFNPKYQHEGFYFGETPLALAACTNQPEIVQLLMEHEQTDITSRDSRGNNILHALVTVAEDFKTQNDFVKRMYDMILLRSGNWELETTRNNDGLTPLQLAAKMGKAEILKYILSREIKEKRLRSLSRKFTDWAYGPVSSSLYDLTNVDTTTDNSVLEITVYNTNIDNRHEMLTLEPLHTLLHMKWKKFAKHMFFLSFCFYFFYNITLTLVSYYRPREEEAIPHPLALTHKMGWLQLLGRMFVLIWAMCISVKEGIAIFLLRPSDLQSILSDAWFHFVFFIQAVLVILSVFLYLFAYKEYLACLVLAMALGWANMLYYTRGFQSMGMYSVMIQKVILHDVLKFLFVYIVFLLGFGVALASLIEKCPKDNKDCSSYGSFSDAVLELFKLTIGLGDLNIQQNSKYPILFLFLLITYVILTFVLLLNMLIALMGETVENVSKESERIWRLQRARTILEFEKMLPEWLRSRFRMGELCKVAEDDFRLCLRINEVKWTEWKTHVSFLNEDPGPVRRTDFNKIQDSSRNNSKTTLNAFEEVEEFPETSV
SMILES,"IC50 [1, 5]","pIC50 [2, 6]","IC50 [2, 7] [nM]","pIC50 [2, 8]","IC50 [2, 9] [nM]",half-life at 1 μM [3] [min],solubility at 40 min [4] [µM],hTRPV3 HAMA IC50 (nM) (5 min) ([1]; 5 min),Solubility Ringer (nM) ([4]; room temperature),"IC50 ([1]; read-out: hTRPV3 HAMA IC50 (nM) (5 min), 5 min)",LM T1/2 (min) (rat) ([3]; 1 μM),Solubility Ringer ([4]; room temperature) [µM],IC50 ([2]; hTRPV3 Patch P1 Inwd (nM)) [nM],"IC50 [2, 10] [nM]","IC50 [1, 11] [nM]",hTRPV3 HAMA IC50 (nM) (30 min) ([1]; 30 min)
"OCc1cc(-c2ccccc2)ccc1N1CC[C@H](Oc2ccc(C(F)(F)F)cn2)C1 [Compound 1-115, (S)-(4-(3-(5-(trifluoromethyl)pyridin-2-yloxy)pyrrolidin-1-yl)biphenyl-3-yl)methanol]",> 20000 nM and 5860 nM,7.00 to 8.00,74.2,7.00 to 8.00,59,45.8,0.37,–,–,–,–,–,–,–,–,–
"CC(O)c1cc(-c2ccccc2)ccc1N1CC[C@H](Oc2ccc(C(F)(F)F)cn2)C1 (stereo partly drawn) [Compound 1-121, 1-(4-((S)-3-(5-(trifluoromethyl)pyridin-2-yloxy)pyrrolidin-1-yl)biphenyl-3-yl)ethanol]",–,7.00 to 8.00,102,–,–,33.3,–,no fit (5 min),BLQ,–,–,–,–,–,–,–
"NC(=O)c1cc(C(=O)c2ccccc2)ccc1N1CC[C@H](Oc2ccc(C(F)(F)F)cn2)C1 [Compound 1-130, (S)-5-benzoyl-2-(3-(5-(trifluoromethyl)pyridin-2-yloxy)pyrrolidin-1-yl)benzamide]",–,< 6.00,1540,–,–,67,~12.2,no fit (5 min),–,–,–,–,–,–,–,–
"Cc1cccnc1O[C@H]1CCN(c2ccc(-c3ccccc3)cc2CO)C1 [Compound 1-131, (S)-(4-(3-(3-methylpyridin-2-yloxy)pyrrolidin-1-yl)biphenyl-3-yl)methanol]",–,6.00 to 7.00,148,–,–,23.5,~0.62,no fit (5 min),–,–,–,–,–,–,–,–
"OCCOc1cc(-c2ccccc2)ccc1N1CC[C@H](Oc2ccc(C(F)(F)F)cn2)C1 [Compound 1-135, (S)-2-(4-(3-(5-(trifluoromethyl)pyridin-2-yloxy)pyrrolidin-1-yl)biphenyl-3-yloxy)ethanol]",–,6.00 to 7.00,765,–,–,69.7,0.19,no fit (5 min),–,–,–,–,–,–,–,–
"NC(=O)c1cc(C(O)c2ccccc2)ccc1N1CC[C@H](Oc2ncccc2Cl)C1 (stereo partly drawn) [Compound 1-137, 2-((S)-3-(3-chloropyridin-2-yloxy)pyrrolidin-1-yl)-5-(hydroxy(phenyl)methyl)benzamide]",–,< 6.00,2980,–,–,8.72,> 17.7,no fit (5 min),–,–,–,–,–,–,–,–
"OCCCc1cc(-c2ccccc2)ccc1N1CC[C@H](Oc2ccc(C(F)(F)F)cn2)C1 [Compound 1-138, (S)-3-(4-(3-(5-(trifluoromethyl)pyridin-2-yloxy)pyrrolidin-1-yl)biphenyl-3-yl)propan-1-ol]",–,6.00 to 7.00,275,–,–,62.4,–,no fit (5 min),BLQ,–,–,–,–,–,–,–
"OCc1nc(Oc2ccccc2)ccc1N1CC[C@H](Oc2ccc(C(F)(F)F)cn2)C1 [Compound 1-139, (S)-(6-phenoxy-3-(3-(5-(trifluoromethyl)pyridin-2-yloxy)pyrrolidin-1-yl)pyridin-2-yl)methanol]",–,7.00 to 8.00,23.6,–,–,–,–,–,–,5750,30.7 (rat) min,~0.3,–,–,–,–
"NC(=O)c1cc(Cc2ccccc2)ccc1N1CC[C@H](Oc2ccc(C(F)(F)F)cn2)C1 [Compound 1-140, (S)-5-benzyl-2-(3-(5-(trifluoromethyl)pyridin-2-yloxy)pyrrolidin-1-yl)benzamide]",–,–,–,–,–,27.7,–,no fit (5 min),BLQ,–,–,–,100 to 1000,710,–,–
"NC(=O)c1cc(C(O)c2ccccc2)ccc1N1CC[C@H](Oc2ccc(C(F)(F)F)cn2)C1 (stereo partly drawn) [Compound 1-146, 5-(hydroxy(phenyl)methyl)-2-((S)-3-(5-(trifluoromethyl)pyridin-2-yloxy)pyrrolidin-1-yl)benzamide]",11800 nM,6.00 to 7.00,686,–,–,45.8,> 13.3,–,–,–,–,–,–,–,–,–
"OCc1cc(Oc2ccccc2)ccc1N1CC[C@H](Oc2ncccc2Cl)C1 [Compound 1-168, (S)-(2-(3-(3-chloropyridin-2-yloxy)pyrrolidin-1-yl)-5-phenoxyphenyl)methanol]",> 20000 nM,7.00 to 8.00,61.2,7.00 to 8.00,90.5,26.7,~0.5,–,–,–,–,–,–,–,–,–
"Cc1ccccc1Oc1ccc(N2CC[C@H](Oc3ncccc3Cl)C2)c(CO)c1 [Compound 1-173, (S)-(2-(3-(3-chloropyridin-2-yloxy)pyrrolidin-1-yl)-5-(o-tolyloxy)phenyl)methanol]",> 20000 nM and 12000 nM,7.00 to 8.00,~29,7.00 to 8.00,34.7,27.9,–,–,BLQ,–,–,–,–,–,1900,–
"COc1ccccc1Oc1ccc(N2CC[C@H](Oc3ncccc3Cl)C2)c(CO)c1 [Compound 1-221, (S)-(2-(3-(3-chloropyridin-2-yloxy)pyrrolidin-1-yl)-5-(2-methoxyphenoxy)phenyl)methanol]",–,–,–,–,–,12.9,~2.9,no fit,–,–,–,–,100 to 1000,159,19400,–
"CCc1ccccc1Oc1ccc(N2CC[C@H](Oc3ncccc3Cl)C2)c(CO)c1 [Compound 1-222, (S)-(2-(3-(3-chloropyridin-2-yloxy)pyrrolidin-1-yl)-5-(2-ethylphenoxy)phenyl)methanol]",–,> 8.00,3.91,–,–,18.7,–,no fit,BLQ,–,–,–,–,–,1790,–
"OCc1cc(Oc2ccccc2Cl)ccc1N1CC[C@H](Oc2ncccc2Cl)C1 [Compound 1-223, (S)-(5-(2-chlorophenoxy)-2-(3-(3-chloropyridin-2-yloxy)pyrrolidin-1-yl)phenyl)methanol]",–,7.00 to 8.00,39.3,7.00 to 8.00,13.3,17.2,–,no fit,BLQ,–,–,–,–,–,14600,–
"CCc1ccccc1-c1ccc(CO)c(N2CC[C@H](Oc3ncccc3Cl)C2)c1 [Compound 1-229, (S)-(3-(3-(3-chloropyridin-2-yloxy)pyrrolidin-1-yl)-2′-ethylbiphenyl-4-yl)methanol]",–,7.00 to 8.00,69.2,–,–,4.46,0.16,no fit (5 min) no fit (30 min),–,–,–,–,–,–,–,no fit (5 min) no fit (30 min)
"OCc1ccc(Oc2ccccc2Cl)cc1N1CC[C@H](Oc2ncccc2Cl)C1 [Compound 1-232, (S)-(4-(2-chlorophenoxy)-2-(3-(3-chloropyridin-2-yloxy)pyrrolidin-1-yl)phenyl)methanol]",–,7.00 to 8.00,~72.5,–,–,5.87,0.25,no fit (5 min) no fit (30 min),–,–,–,–,–,–,–,no fit (5 min) no fit (30 min)
"CCc1ccccc1Oc1ccc(CO)c(N2CC[C@H](Oc3ncccc3Cl)C2)c1 [Compound 1-233, (S)-(2-(3-(3-chloropyridin-2-yloxy)pyrrolidin-1-yl)-4-(2-ethylphenoxy)phenyl)methanol]",–,7.00 to 8.00,~21.6,–,–,10.4,–,no fit,BLQ,–,–,–,–,–,> 20000,–
